Tested on: subjects with major depressive disorder (MDD) who were inadequate responders to citalopram
Assay: QIDS-SR, Phase 2b add-on trial
Assay type: in vivo, human
Description: The 30 item Inventory of Depressive Symptomatology (IDS) (Rush et al. 1986, 1996) and the 16 item Quick Inventory of Depressive Symptomatology (QIDS) (Rush et al. 2003) are designed to assess the severity of depressive symptoms. Both the IDS and the […] are available in the clinician (IDS-C30 and QIDS-C16) and self-rated versions (IDS-SR30 and QIDS-SR16). The IDS and QIDS assess all the criterion symptom domains designated by the American Psychiatry Association Diagnostic and Statistical Manual of Mental Disorders—4th edition (DSM-IV) (APA 1994) to diagnose a major depressive episode. These assessments can be used to screen for depression, although they have been used predominantly as measures of symptom severity. The seven day period prior to assessment is the usual time frame for assessing symptom severity. The […] and QIDS-SR16 cover only the nine diagnostic symptom domains used to characterize a major depressive episode, without items to assess atypical, melancholic or their commonly associated symptoms. All 16 items on the QIDS are included within the IDS. The IDS-C30 and […] include the criterion symptoms, as well as commonly associated symptoms (e.g. anxiety, irritability) and items relevant to melancholic, or atypical symptom features. Both versions are sensitive to change, with medications, psychotherapy, or somatic treatments, making them useful for both research and clinical purposes. The psychometric properties of both the IDS and QIDS, have both been established in various study samples. See Rush A J, Trivedi M H, Ibrahim H M, et al., The 16-item Quick Inventory of Depressive Symptomatology (QIDS), Clinician Rating (QIDS-C), and Self-Report (QIDS-SR): a psychometric evaluation in patients with chronic major depression. Biol Psychiatry.; 54: 573-583 (2003).
In more detail, a multi-center double-blind, randomized, placebo-controlled, parallel group, flexible dose titration study of TC-5214 as adjunctive therapy in subjects with major depressive disorder (MDD) who were inadequate responders to citalopram was conducted in centers in the US and India. The study consisted of a screening period, baseline/washout period, open-label phase, double-blind phase, and a follow-up visit. Subject participation in the study could continue for up to 16 weeks of treatment. Following a washout period of up to 28 days for other antidepressants, subjects with MDD and a MADRS total score >/=28 and a Clinical Global Impression-Severity (CGI-S) score >/=4 were enrolled on Day 1 into an open-label citalopram-only phase of the study. This phase lasted 8 weeks, with citalopram (CIT) dose increased from a once-daily dose of 20 mg (Day 1 through Week 4) to 40 mg (Week 4 through Week 8). A total of 579 subjects entered the open-label citalopram phase. At Week 8, subjects who tolerated 40 mg CIT, but whose MADRS score was reduced <50% from baseline and no lower than 17, and CGI-S≧4, were considered inadequate responders. These subjects (n=270) were randomized in a double-blind fashion to receive either placebo or TC-5214-23 as add-on therapy to continued CIT. The double-blind phase of the study also lasted 8 weeks (Week 8 to Week 16). Study drug, TC-5214-23 or placebo, was started at 2 mg daily (1 mg twice per day [BID] dosing), added on to continuing CIT (40 mg PO qd). After 2 weeks of treatment, the dose of TC-5214 could be increased to 4 mg (2 mg BID) or continued unchanged, with up-titration based upon good tolerability and inadequate therapeutic response. After a further 2 weeks, the dose of TC-5214 could be increased again to 8 mg (4 mg BID) if judged appropriate by the investigator, based upon good tolerability and inadequate therapeutic response. At any time during the double-blind phase of the study, placebo or TC-5214-23 could be reduced to the previous dose level following the emergence of unacceptable adverse events (AEs). […] At this follow-up, any signs or symptoms of relapse were evaluated. […]

[1] = ITT N=265, week of double-blind treatment
[2] = ITT and PP, at every assessment week, result in words
[3] = ITT, Double Blind Week 18 (Follow-up)
[4] = ITT, Double Blind Week 18 LOCF (Follow-up), change from Week 16
[5] = PP, Double Blind Week 16 LOCF (change from Week 8)
[6] = PP, Double Blind Week 18 (Follow-up)
[7] = PP, Double Blind Week 18 LOCF (Follow-up), change from Week 16

CNC1(C)C2CCC(C2)C1(C)C (stereo in doubt) [TC-5214, (S)—N,2,3,3-tetramethylnorbornan-2-amine]
onset of separation from placebo, subject rated remission QIDS-SR≦5 (FIG. 2) [1]: ≤ 2 week
onset of separation from placebo, subject rated response QIDS-SR≧50% (FIG. 3) [1]: ≤ 1 week
QIDS-SR score change from baseline compared with placebo (ITT and PP populations, result in words): statistically significant decreases (improvements)
QIDS remission proportion compared with placebo [2]: higher proportion of subjects with remission
QIDS responders (reduction from baseline ≧50%) proportion compared with placebo [2]: higher proportion of responders
QIDS reduction from baseline ≧50%: Subjects with Response (number) (ITT, Double Blind Week 10): 29
QIDS reduction from baseline ≧50%: Subjects with Response (percentage) (ITT, Double Blind Week 10): 22%
QIDS reduction from baseline ≧50%: Subjects without Response (number) (ITT, Double Blind Week 10): 104
QIDS reduction from baseline ≧50%: Subjects without Response (percentage) (ITT, Double Blind Week 10): 78%
QIDS score ≦5: Subjects with Remission (number) (ITT, Double Blind Week 10): 19
QIDS score ≦5: Subjects with Remission (percentage) (ITT, Double Blind Week 10): (14%)
QIDS score ≦5: Subjects without Remission (number) (ITT, Double Blind Week 10): 114
QIDS score ≦5: Subjects without Remission (percentage) (ITT, Double Blind Week 10): (86%)
QIDS reduction from baseline ≧50%: Subjects with Response (number) (ITT, Double Blind Week 12): 44
QIDS reduction from baseline ≧50%: Subjects with Response (percentage) (ITT, Double Blind Week 12): 33%
QIDS reduction from baseline ≧50%: Subjects without Response (number) (ITT, Double Blind Week 12): 89
QIDS reduction from baseline ≧50%: Subjects without Response (percentage) (ITT, Double Blind Week 12): 67%
QIDS score ≦5: Subjects with Remission (number) (ITT, Double Blind Week 12): 25
QIDS score ≦5: Subjects with Remission (percentage) (ITT, Double Blind Week 12): (19%)
QIDS score ≦5: Subjects without Remission (number) (ITT, Double Blind Week 12): 108
QIDS score ≦5: Subjects without Remission (percentage) (ITT, Double Blind Week 12): (81%)
QIDS reduction from baseline ≧50%: Subjects with Response (number) (ITT, Double Blind Week 14): 67
QIDS reduction from baseline ≧50%: Subjects with Response (percentage) (ITT, Double Blind Week 14): 50%
QIDS reduction from baseline ≧50%: Subjects without Response (number) (ITT, Double Blind Week 14): 66
QIDS reduction from baseline ≧50%: Subjects without Response (percentage) (ITT, Double Blind Week 14): 50%
QIDS score ≦5: Subjects with Remission (number) (ITT, Double Blind Week 14): 45
QIDS score ≦5: Subjects with Remission (percentage) (ITT, Double Blind Week 14): (34%)
QIDS score ≦5: Subjects without Remission (number) (ITT, Double Blind Week 14): 88
QIDS score ≦5: Subjects without Remission (percentage) (ITT, Double Blind Week 14): (66%)
QIDS reduction from baseline ≧50%: Subjects with Response (number) (ITT, Double Blind Week 16): 88
QIDS reduction from baseline ≧50%: Subjects with Response (percentage) (ITT, Double Blind Week 16): 66%
QIDS reduction from baseline ≧50%: Subjects without Response (number) (ITT, Double Blind Week 16): 45
QIDS reduction from baseline ≧50%: Subjects without Response (percentage) (ITT, Double Blind Week 16): 34%
QIDS score ≦5: Subjects with Remission (number) (ITT, Double Blind Week 16): 60
QIDS score ≦5: Subjects with Remission (percentage) (ITT, Double Blind Week 16): (45%)
QIDS score ≦5: Subjects without Remission (number) (ITT, Double Blind Week 16): 73
QIDS score ≦5: Subjects without Remission (percentage) (ITT, Double Blind Week 16): (55%)
QIDS-SR Mean Difference between TC-5214 and Placebo (ITT, Double Blind Week 16 LOCF (change from Week 8)): 3.79
QIDS reduction from baseline ≧50%: Subjects with Response (number) [3]: 92
QIDS reduction from baseline ≧50%: Subjects with Response (percentage) [3]: 69%
QIDS reduction from baseline ≧50%: Subjects without Response (number) [3]: 41
QIDS reduction from baseline ≧50%: Subjects without Response (percentage) [3]: 31%
QIDS score ≦5: Subjects with Remission (number) [3]: 75
QIDS score ≦5: Subjects with Remission (percentage) [3]: (56%)
QIDS score ≦5: Subjects without Remission (number) [3]: 58
QIDS score ≦5: Subjects without Remission (percentage) [3]: (44%)
QIDS-SR Adjusted Mean change [4]: −0.52
QIDS-SR Mean Difference between TC-5214 and Placebo [4]: 0.58
QIDS-SR Difference vs Placebo + CIT (ITT, Week 8 to Week 16 LOCF): −3.76
QIDS-SR Adj. Mean change (ITT, change from Week 8 (double-blind baseline) to Week 16 LOCF, add-on to citalopram): −8.07
QIDS-SR score change at Week 18 compared with placebo (PP population, Week 18, result in words): statistically significant decrease
QIDS reduction from baseline ≧50%: Subjects with Response (number) (PP, Double Blind Week 10): 25
QIDS reduction from baseline ≧50%: Subjects with Response (percentage) (PP, Double Blind Week 10): 22%
QIDS reduction from baseline ≧50%: Subjects without Response (number) (PP, Double Blind Week 10): 88
QIDS reduction from baseline ≧50%: Subjects without Response (percentage) (PP, Double Blind Week 10): 78%
QIDS score ≦5: Subjects with Remission (number) (PP, Double Blind Week 10): 17
QIDS score ≦5: Subjects with Remission (percentage) (PP, Double Blind Week 10): 15%
QIDS score ≦5: Subjects without Remission (number) (PP, Double Blind Week 10): 96
QIDS score ≦5: Subjects without Remission (percentage) (PP, Double Blind Week 10): 85%
QIDS reduction from baseline ≧50%: Subjects with Response (number) (PP, Double Blind Week 12): 40
QIDS reduction from baseline ≧50%: Subjects with Response (percentage) (PP, Double Blind Week 12): 35%
QIDS reduction from baseline ≧50%: Subjects without Response (number) (PP, Double Blind Week 12): 73
QIDS reduction from baseline ≧50%: Subjects without Response (percentage) (PP, Double Blind Week 12): 65%
QIDS score ≦5: Subjects with Remission (number) (PP, Double Blind Week 12): 23
QIDS score ≦5: Subjects with Remission (percentage) (PP, Double Blind Week 12): 20%
QIDS score ≦5: Subjects without Remission (number) (PP, Double Blind Week 12): 90
QIDS score ≦5: Subjects without Remission (percentage) (PP, Double Blind Week 12): 80%
QIDS reduction from baseline ≧50%: Subjects with Response (number) (PP, Double Blind Week 14): 59
QIDS reduction from baseline ≧50%: Subjects with Response (percentage) (PP, Double Blind Week 14): 52%
QIDS reduction from baseline ≧50%: Subjects without Response (number) (PP, Double Blind Week 14): 54
QIDS reduction from baseline ≧50%: Subjects without Response (percentage) (PP, Double Blind Week 14): 48%
QIDS score ≦5: Subjects with Remission (number) (PP, Double Blind Week 14): 39
QIDS score ≦5: Subjects with Remission (percentage) (PP, Double Blind Week 14): 35%
QIDS score ≦5: Subjects without Remission (number) (PP, Double Blind Week 14): 74
QIDS score ≦5: Subjects without Remission (percentage) (PP, Double Blind Week 14): 65%
QIDS reduction from baseline ≧50%: Subjects with Response (number) (PP, Double Blind Week 16): 80
QIDS reduction from baseline ≧50%: Subjects with Response (percentage) (PP, Double Blind Week 16): 71%
QIDS reduction from baseline ≧50%: Subjects without Response (number) (PP, Double Blind Week 16): 33
QIDS reduction from baseline ≧50%: Subjects without Response (percentage) (PP, Double Blind Week 16): 29%
QIDS score ≦5: Subjects with Remission (number) (PP, Double Blind Week 16): 55
QIDS score ≦5: Subjects with Remission (percentage) (PP, Double Blind Week 16): 49%
QIDS score ≦5: Subjects without Remission (number) (PP, Double Blind Week 16): 58
QIDS score ≦5: Subjects without Remission (percentage) (PP, Double Blind Week 16): 51%
QIDS-SR Adjusted Mean change [5]: −8.60
QIDS-SR Mean Difference between TC-5214 and Placebo [5]: 3.90
QIDS reduction from baseline ≧50%: Subjects with Response (number) [6]: 84
QIDS reduction from baseline ≧50%: Subjects with Response (percentage) [6]: 74%
QIDS reduction from baseline ≧50%: Subjects without Response (number) [6]: 29
QIDS reduction from baseline ≧50%: Subjects without Response (percentage) [6]: 26%
QIDS score ≦5: Subjects with Remission (number) [6]: 69
QIDS score ≦5: Subjects with Remission (percentage) [6]: 61%
QIDS score ≦5: Subjects without Remission (number) [6]: 44
QIDS score ≦5: Subjects without Remission (percentage) [6]: 39%
QIDS-SR Adjusted Mean change [7]: −0.65
QIDS-SR Mean Difference between TC-5214 and Placebo [7]: 0.84

From US20120190752A1, “EXO-S-MECAMYLAMINE METHOD, USE, AND COMPOUND FOR TREATMENT” (Targacept Inc., priority 2009, published 2012)
